The nature of the series: Solubility experiments and 1H-NMR spectra: complexing with cyclodextrins. The class given is physicochemical. The following applies: hydrochloride of BIII 890; γ-cyclodextrin, HPγCD, HPβCD and SBEβCD.

Molecules are shown by their SMILES.

As to `C[C@@H](CN1CC[C@@]2(C)c3cccc(O)c3C[C@@H]1C2(C)C)OCc1ccccc1` [BIII 890, (−)-(1R,2″S)-2-(2″-benzyloxy)propyl-4′-hydroxy-5,9,9-trimethyl-6,7-benzomorphan], the “complexing of the active substance by cyclodextrins” value was “complex”.
